PubChem BioAssay AID2060488 (Molecular Pharmacology Branch, DTP, NCI, 2025)

Tested on: 966289-007-R4-J1-PDC complex spheroid viability
Assay: Anticancer human tumor 966289-007-R4-J1-PDC patient-derived pancreatic adenocarcinoma cell line growth inhibition [GQUAD]
Conditions: for IC50: curve of first compound; for viability, T/C: stronger effect = lower value; active = viability on the fitted dose curve at most 10% of control; inactive = the rest
How it was run: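 Viability of tumor cells grown as complex spheroids with endothelial and stromal cells, exposed to drug combinations. Top concentration at or near clinical Cmax (else 10 microM), diluted in half-log increments.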

[1] = second compound 0.0316 µM, first compound 0.0316 µM
[2] = second compound 0.0316 µM, first compound 0.316 µM
[3] = second compound 0.1 µM, first compound 0.0316 µM
[4] = second compound 0.1 µM, first compound 0.316 µM
[5] = second compound 0.316 µM, first compound 0.0316 µM
[6] = second compound 0.316 µM, first compound 0.316 µM
[7] = second compound 1 µM, first compound 0.0316 µM
[8] = second compound 1 µM, first compound 0.316 µM
[9] = second compound 3.16 µM, first compound 0.0316 µM
[10] = second compound 3.16 µM, first compound 0.316 µM
[11] = second compound 10 µM, first compound 0.0316 µM
[12] = second compound 10 µM, first compound 0.316 µM
[13] = second compound 0.0316 µM, first compound 0.000999 µM
[14] = second compound 0.0316 µM, first compound 0.00316 µM
[15] = second compound 0.0316 µM, first compound 0.00999 µM
[16] = second compound 0.0316 µM, first compound 0.0999 µM
[17] = second compound 0.1 µM, first compound 0.000999 µM
[18] = second compound 0.1 µM, first compound 0.00316 µM
[19] = second compound 0.1 µM, first compound 0.00999 µM
[20] = second compound 0.1 µM, first compound 0.0999 µM
[21] = second compound 0.316 µM, first compound 0.000999 µM
[22] = second compound 0.316 µM, first compound 0.00316 µM
[23] = second compound 0.316 µM, first compound 0.00999 µM
[24] = second compound 0.316 µM, first compound 0.0999 µM
[25] = second compound 1 µM, first compound 0.000999 µM
[26] = second compound 1 µM, first compound 0.00316 µM
[27] = second compound 1 µM, first compound 0.00999 µM
[28] = second compound 1 µM, first compound 0.0999 µM
[29] = second compound 3.16 µM, first compound 0.000999 µM
[30] = second compound 3.16 µM, first compound 0.00316 µM
[31] = second compound 3.16 µM, first compound 0.00999 µM
[32] = second compound 3.16 µM, first compound 0.0999 µM
[33] = second compound 10 µM, first compound 0.000999 µM
[34] = second compound 10 µM, first compound 0.00316 µM
[35] = second compound 10 µM, first compound 0.00999 µM
[36] = second compound 10 µM, first compound 0.0999 µM
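Also: spheroids exposed to the agents for seven days before readout.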
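For viability, T/C in this document: percent viability relative to DMSO vehicle control wells taken as 100%.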

CC(C)n1c(=O)n(C)c2cnc3cc(F)c(-c4ccc(OCCCN5CCCCC5)nc4)cc3c21 + Cc1cnc(CNC(=O)c2c(=O)c3ccc(N4CCCN(C)CC4)nc3n3c2sc2ccccc23)cn1
< 31600 pM: IC50 (second compound 0.0316 µM) | IC50 (second compound 0.1 µM) | IC50 (second compound 0.316 µM) | IC50 (second compound 1 µM) | IC50 (second compound 3.16 µM) | IC50 (second compound 10 µM)
inactive: viability, T/C [1] 36.8% | viability, T/C (second compound 0.0316 µM, first compound 0.1 µM) 18.8% | viability, T/C [2] 21.1% | viability, T/C (second compound 0.0316 µM, first compound 1 µM) 15.4% | viability, T/C (second compound 0.0316 µM, first compound 3.16 µM) 33.4% | viability, T/C (second compound 0.0316 µM, first compound 10 µM) 31.6% | viability, T/C [3] 10.5% | viability, T/C (second compound 0.1 µM, first compound 0.1 µM) 7.68% | viability, T/C [4] 8.96% | viability, T/C (second compound 0.1 µM, first compound 1 µM) 9.72% | viability, T/C (second compound 0.1 µM, first compound 3.16 µM) 12.6% | viability, T/C (second compound 0.1 µM, first compound 10 µM) 17.9%
active: viability, T/C [5] 6.19% | viability, T/C (second compound 0.316 µM, first compound 0.1 µM) 6.34% | viability, T/C [6] 5.97% | viability, T/C (second compound 0.316 µM, first compound 1 µM) 6.08% | viability, T/C (second compound 0.316 µM, first compound 3.16 µM) 7.07% | viability, T/C (second compound 0.316 µM, first compound 10 µM) 8.93% | viability, T/C [7] 3.82% | viability, T/C (second compound 1 µM, first compound 0.1 µM) 4.77% | viability, T/C [8] 3.79% | viability, T/C (second compound 1 µM, first compound 1 µM) 4.54% | viability, T/C (second compound 1 µM, first compound 3.16 µM) 5.48% | viability, T/C (second compound 1 µM, first compound 10 µM) 5.76% | viability, T/C [9] 1.67% | viability, T/C (second compound 3.16 µM, first compound 0.1 µM) 2.31% | viability, T/C [10] 1.96% | viability, T/C (second compound 3.16 µM, first compound 1 µM) 2.66% | viability, T/C (second compound 3.16 µM, first compound 3.16 µM) 3.94% | viability, T/C (second compound 3.16 µM, first compound 10 µM) 3% | viability, T/C [11] 0.09% | viability, T/C (second compound 10 µM, first compound 0.1 µM) 0.12% | viability, T/C [12] 0.27% | viability, T/C (second compound 10 µM, first compound 1 µM) 0.16% | viability, T/C (second compound 10 µM, first compound 3.16 µM) 0.16% | viability, T/C (second compound 10 µM, first compound 10 µM) 0.15%

CC[C@@]1(O)C(=O)OCc2c1cc1n(c2=O)Cc2cc3c(CN(C)C)c(O)ccc3nc2-1 + Cc1cnc(CNC(=O)c2c(=O)c3ccc(N4CCCN(C)CC4)nc3n3c2sc2ccccc23)cn1
active: viability, T/C [16] 0.58% | viability, T/C [2] 0.79% | viability, T/C [3] 3.15% | viability, T/C [20] 0.77% | viability, T/C [4] 0.75% | viability, T/C [22] 13.5% | viability, T/C [23] 8.56% | viability, T/C [5] 2.61% | viability, T/C [24] 0.93% | viability, T/C [6] 0.49% | viability, T/C [25] 5.94% | viability, T/C [26] 5.56% | viability, T/C [27] 4.48% | viability, T/C [7] 1.71% | viability, T/C [28] 0.92% | viability, T/C [8] 0.68% | viability, T/C [29] 3.9% | viability, T/C [30] 3.89% | viability, T/C [31] 3.05% | viability, T/C [9] 0.13% | viability, T/C [32] 0.08% | viability, T/C [10] 0.07% | viability, T/C [33] 0.03% | viability, T/C [34] 0.08% | viability, T/C [35] 0.12% | viability, T/C [11] 0.09% | viability, T/C [36] 0.3% | viability, T/C [12] 0.11%
14700 pM: IC50 (second compound 0.0316 µM)
< 999 pM: IC50 (second compound 0.1 µM) | IC50 (second compound 0.316 µM) | IC50 (second compound 1 µM) | IC50 (second compound 3.16 µM) | IC50 (second compound 10 µM)
inactive: viability, T/C [13] 114% | viability, T/C [14] 101% | viability, T/C [15] 70.2% | viability, T/C [1] 11% | viability, T/C [17] 37.3% | viability, T/C [18] 28.6% | viability, T/C [19] 16.8% | viability, T/C [21] 9.34%

CCc1c2c(nc3ccc(O)cc13)-c1cc3c(c(=O)n1C2)COC(=O)[C@]3(O)CC + Cc1cnc(CNC(=O)c2c(=O)c3ccc(N4CCCN(C)CC4)nc3n3c2sc2ccccc23)cn1
active: viability, T/C [13] 5.02% | viability, T/C [14] 0.7% | viability, T/C [15] 0.49% | viability, T/C [1] 0.4% | viability, T/C [16] 0.35% | viability, T/C [2] 0.36% | viability, T/C [17] 2.67% | viability, T/C [18] 0.71% | viability, T/C [19] 1.06% | viability, T/C [3] 0.42% | viability, T/C [20] 0.35% | viability, T/C [4] 0.46% | viability, T/C [21] 2.26% | viability, T/C [22] 0.87% | viability, T/C [23] 0.52% | viability, T/C [5] 0.5% | viability, T/C [24] 0.79% | viability, T/C [6] 0.41% | viability, T/C [25] 1.23% | viability, T/C [26] 0.79% | viability, T/C [27] 0.82% | viability, T/C [7] 0.08% | viability, T/C [28] 0.63% | viability, T/C [8] 0.12% | viability, T/C [29] 0.43% | viability, T/C [30] 0.09% | viability, T/C [31] 0.06% | viability, T/C [9] 0.05% | viability, T/C [32] 0.12% | viability, T/C [10] 0.09% | viability, T/C [33] 0.03% | viability, T/C [34] 0.07% | viability, T/C [35] 0.08% | viability, T/C [11] 0.07% | viability, T/C [36] 1.27% | viability, T/C [12] 0.1%
< 999 pM: IC50 (second compound 0.0316 µM) | IC50 (second compound 0.1 µM) | IC50 (second compound 0.316 µM) | IC50 (second compound 1 µM) | IC50 (second compound 3.16 µM) | IC50 (second compound 10 µM)
